What was measured:
Type in all cases: binding
[1] = Competition with EDTA in complexing Eu3+, proton NMR; conditions: 1 mmol/l derivative, 4 mmol/l cation and EDTA (large excess of EDTA), aqueous solution
Method: (§1) In this example, experiments were carried out to compare the derivative from Example 1 and ethylene diamine tetra acetate (EDTA) in complexing Dy^3+, Eu^3+ and Co^2+ ions, in order to get an idea of the force of the complexes prepared in Example 2.
(§2) With this in mind, 4 mmol/l of the tested cation and EDTA were added to 50 μl of an aqueous solution containing 1 mmol/l of the derivative from Example 1. The resulting products were than characterised by proton NMR spectrometry.

[2] = Competition with EDTA in complexing Co2+, proton NMR; conditions: 1 mmol/l derivative, 4 mmol/l cation and EDTA (large excess of EDTA), aqueous solution
Method: as §1, §2

[3] = Competition with EDTA in complexing Dy3+, proton NMR; conditions: 1 mmol/l derivative, 4 mmol/l cation and EDTA (large excess of EDTA), aqueous solution
Method: as §1, §2

[4] = Complexation of La3+ followed by proton NMR; conditions: 1 mmol/l derivative, 4 mmol/l cation, aqueous solution
Method: (§3) Each complex is prepared by adding 4 mmol/l of the tested cation to 500 μl of an aqueous solution containing 1 mmol/l of the product from Example 1. The following cations were tested: Lu^3+, La^3+, Dy^3+, Eu^3+ and Co^2+.
(§4) The resulting complexes were then characterised by proton nuclear magnetic resonance spectrometry.

[5] = Complexation of physiological cation Na+, proton NMR; conditions: same procedure as Example 2: 1 mmol/l derivative, 4 mmol/l cation
Method: as §3
(§5) In this example, the complexation properties of the derivative from Example 1 were tested vis à vis physiological cations: calcium, sodium and potassium, all of which are required in the development of living organisms.
(§6) The same procedure was used as given in Example 2, and the resulting products were characterised by proton NMR spectrometry.

[6] = Complexation of Lu3+ followed by proton NMR; conditions: 1 mmol/l derivative, 4 mmol/l cation, aqueous solution
Method: as §3, §4

[7] = Complexation of physiological cation K+, proton NMR; conditions: same procedure as Example 2: 1 mmol/l derivative, 4 mmol/l cation
Method: as §3, §5, §6

[8] = Complexation of Eu3+ followed by proton NMR; conditions: 1 mmol/l derivative, 4 mmol/l cation, aqueous solution
Method: as §3, §4

[9] = Complexation of Dy3+ followed by proton NMR; conditions: 1 mmol/l derivative, 4 mmol/l cation, aqueous solution
Method: as §3, §4

[10] = Complexation of physiological cation Ca2+, proton NMR; conditions: same procedure as Example 2: 1 mmol/l derivative, 4 mmol/l cation
Method: as §3, §5, §6

[11] = Complexation of Co2+ followed by proton NMR; conditions: 1 mmol/l derivative, 4 mmol/l cation, aqueous solution
Method: as §3, §4

Hexakis-(3,6-anhydro-2-O-carboxymethyl)-cyclomaltohexaose [Example 1]
strength of Eu^3+ complex compared to EDTA [1]: complexes the cations more strongly than EDTA | strength of Co^2+ complex compared to EDTA [2]: complexes the cations more strongly than EDTA | strength of Dy^3+ complex compared to EDTA [3]: complexes the cations more strongly than EDTA | interaction with La^3+ (change of proton NMR spectrum) [4]: H6 and H6′ protons located on the anhydro bridge can still be observed | effect of Na^+ on proton NMR peaks of the derivative (complexation) [5]: hardly affected | interaction with Lu^3+ (change of proton NMR spectrum) [6]: several stoichiometrically different complexes co-exist in solution | effect of K^+ on proton NMR peaks of the derivative (complexation) [7]: hardly affected | interaction with Eu^3+ (change of proton NMR spectrum) [8]: very strong interaction | interaction with Dy^3+ (change of proton NMR spectrum) [9]: very strong interaction | effect of Ca^2+ on proton NMR peaks of the derivative (complexation) [10]: hardly affected | interaction with Co^2+ (change of proton NMR spectrum) [11]: very strong interaction

— patent publication US6559135B2, “Per-(3-6-anhydro)cyclodextrins derivatives, preparation and use thereof for separating ions” (Commissariat a l'Energie Atomique, priority 2000, dated 2003)
